# PubChem BioAssay (NCI)
#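 GI50 marks 50% less growth. TGI marks complete inhibition of growth.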
# Columns and labels:
# Test in all cases: NCI anticancer screen, dose series, 384-well format
# SR leukemia = test system: SR leukemia
# SK-MEL-28 melanoma = test system: SK-MEL-28 melanoma
# 786-0 renal = test system: 786-0 renal
# EKVX NSCLC = test system: EKVX NSCLC
# A549 NSCLC = test system: A549 NSCLC
# MCF7 breast = test system: MCF7 breast
# OVCAR-5 ovarian = test system: OVCAR-5 ovarian
# KM12 colon = test system: KM12 colon
# RXF 393 renal = test system: RXF 393 renal
# UACC-257 melanoma = test system: UACC-257 melanoma
# NCI-H322M lung = test system: NCI-H322M lung
# MOLT-4 leukemia = test system: MOLT-4 leukemia
# MDA-MB-231 breast = test system: MDA-MB-231 breast
# MDA-MB-435 melanoma = test system: MDA-MB-435 melanoma
# DU-145 prostate = test system: DU-145 prostate
# OVCAR-4 ovarian = test system: OVCAR-4 ovarian
# NCI/ADR-RES ovarian = test system: NCI/ADR-RES ovarian
# TK-10 renal = test system: TK-10 renal
# BT-549 breast = test system: BT-549 breast
# UO-31 renal = test system: UO-31 renal
# SK-OV-3 ovarian = test system: SK-OV-3 ovarian
# SF-268 CNS = test system: SF-268 CNS
# U251 glioblastoma = test system: U251 glioblastoma
# LOX IMVI melanoma = test system: LOX IMVI melanoma
# COLO 205 colon = test system: COLO 205 colon
# SW-620 colon = test system: SW-620 colon
# SK-MEL-5 melanoma = test system: SK-MEL-5 melanoma
# HT29 colon = test system: HT29 colon
# SF-295 CNS = test system: SF-295 CNS
smiles,measurement,setting,value
c1ccc(-c2nn3c(c2-c2ccnc4cc(OCCN5CCOCC5)ccc24)CCC3)nc1,GI50,SR leukemia,40.3 µM
same,TGI,SR leukemia,> 100 µM
same,GI50,SK-MEL-28 melanoma,> 100 µM
same,TGI,SK-MEL-28 melanoma,> 100 µM
same,GI50,786-0 renal,> 100 µM
same,TGI,786-0 renal,> 100 µM
same,GI50,EKVX NSCLC,> 100 µM
same,TGI,EKVX NSCLC,> 100 µM
same,GI50,A549 NSCLC,29.9 µM
same,TGI,A549 NSCLC,> 100 µM
same,GI50,MCF7 breast,24.9 µM
same,TGI,MCF7 breast,> 100 µM
same,GI50,OVCAR-5 ovarian,> 100 µM
same,TGI,OVCAR-5 ovarian,> 100 µM
same,GI50,KM12 colon,85.1 µM
same,TGI,KM12 colon,> 100 µM
same,GI50,RXF 393 renal,> 100 µM
same,TGI,RXF 393 renal,> 100 µM
same,GI50,UACC-257 melanoma,> 100 µM
same,TGI,UACC-257 melanoma,> 100 µM
same,GI50,NCI-H322M lung,> 100 µM
same,TGI,NCI-H322M lung,> 100 µM
same,GI50,MOLT-4 leukemia,4.62 µM
same,TGI,MOLT-4 leukemia,17.4 µM
same,GI50,MDA-MB-231 breast,> 100 µM
same,TGI,MDA-MB-231 breast,> 100 µM
same,GI50,MDA-MB-435 melanoma,> 100 µM
same,TGI,MDA-MB-435 melanoma,> 100 µM
same,GI50,DU-145 prostate,> 100 µM
same,TGI,DU-145 prostate,> 100 µM
same,GI50,OVCAR-4 ovarian,> 100 µM
same,TGI,OVCAR-4 ovarian,> 100 µM
same,GI50,NCI/ADR-RES ovarian,> 100 µM
same,TGI,NCI/ADR-RES ovarian,> 100 µM
same,GI50,TK-10 renal,> 100 µM
same,TGI,TK-10 renal,> 100 µM
same,GI50,BT-549 breast,> 100 µM
same,TGI,BT-549 breast,> 100 µM
same,GI50,UO-31 renal,> 100 µM
same,TGI,UO-31 renal,> 100 µM
same,GI50,SK-OV-3 ovarian,> 100 µM
same,TGI,SK-OV-3 ovarian,> 100 µM
same,GI50,SF-268 CNS,> 100 µM
same,TGI,SF-268 CNS,> 100 µM
same,GI50,U251 glioblastoma,> 100 µM
same,TGI,U251 glioblastoma,> 100 µM
same,GI50,LOX IMVI melanoma,> 100 µM
same,TGI,LOX IMVI melanoma,> 100 µM
same,GI50,COLO 205 colon,37.9 µM
same,TGI,COLO 205 colon,> 100 µM
same,GI50,SW-620 colon,> 100 µM
same,TGI,SW-620 colon,> 100 µM
same,GI50,SK-MEL-5 melanoma,16.2 µM
same,TGI,SK-MEL-5 melanoma,> 100 µM
same,GI50,HT29 colon,48.2 µM
same,TGI,HT29 colon,> 100 µM
same,GI50,SF-295 CNS,> 100 µM
same,TGI,SF-295 CNS,> 100 µM
